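Values below derive from 48-hour exposures of cells grown in 96-well plates, with endpoints linearly interpolated between the two concentrations bracketing the appropriate inhibition level. Definition used: TGI = concentration required for complete inhibition of growth.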
Legend:
Assay in all cases: NCI tumour cell line growth inhibition, 48 h
[1] = tested on: SR leukemia
[2] = tested on: SF-539 CNS
[3] = tested on: HT29 colon
[4] = tested on: DLD-1 colon
[5] = tested on: SK-MEL-2 melanoma
[6] = tested on: HCC-2998 colon
[7] = tested on: OVCAR-4 ovarian
[8] = tested on: SNB-19 CNS
[9] = tested on: HL-60(TB) leukemia
[10] = tested on: DMS 114 small cell lung
[11] = tested on: SW-620 colon
[12] = tested on: KM12 colon
[13] = tested on: LXFL 529 NSCLC
[14] = tested on: K-562 leukemia
[15] = tested on: ACHN renal
[16] = tested on: M14 melanoma
[17] = tested on: M19-MEL melanoma
[18] = tested on: MOLT-4 leukemia
[19] = tested on: SNB-78 CNS
[20] = tested on: SF-295 CNS
[21] = tested on: HOP-62 NSCLC
[22] = tested on: SNB-75 CNS
[23] = tested on: SN12C renal
[24] = tested on: RPMI-8226 leukemia
[25] = tested on: RXF 393 renal
[26] = tested on: HOP-18 NSCLC
[27] = tested on: UO-31 renal
[28] = tested on: NCI-H460 lung
[29] = tested on: RXF-631 renal
[30] = tested on: IGROV1 ovarian
[31] = tested on: SK-MEL-28 melanoma
[32] = tested on: NCI-H23 lung
[33] = tested on: EKVX NSCLC
[34] = tested on: DMS 273 small cell lung
[35] = tested on: OVCAR-3 ovarian
[36] = tested on: KM20L2 colon
[37] = tested on: UACC-257 melanoma
[38] = tested on: A498 renal
[39] = tested on: 786-0 renal
[40] = tested on: U251 CNS
[41] = tested on: CCRF-CEM leukemia
[42] = tested on: A549 NSCLC
[43] = tested on: HOP-92 NSCLC
[44] = tested on: SK-OV-3 ovarian
[45] = tested on: UACC-62 melanoma
[46] = tested on: HCT-15 colon
[47] = tested on: COLO 205 colon
[48] = tested on: OVCAR-8 ovarian
[49] = tested on: CAKI-1 renal
[50] = tested on: SF-268 CNS
[51] = tested on: HCT-116 colon
[52] = tested on: LOX IMVI melanoma
[53] = tested on: XF 498 CNS
[54] = tested on: OVCAR-5 ovarian
[55] = tested on: NCI-H226 lung
[56] = tested on: TK-10 renal
[57] = tested on: SK-MEL-5 melanoma
[58] = tested on: NCI-H522 lung
[59] = tested on: MALME-3M melanoma

Measured: TGI

CC(C)(C)C(=O)Nc1cccc2oc(-c3ccccc3)cc12
96.4 µM: [43]
not listed: [50] | [51] | [52] | [53] | [54] | [55] | [56] | [57] | [58] | [59]
> 100 µM: all other assays above

COc1ccccc1CC(C)N (configuration not stated)
not listed: [1] | [17] | [18]
> 100 µM: all other assays above

Cc1[nH]c2ccccc2c1CC/C(=N\Nc1ccccc1)c1ccccc1
not listed: [1] | [8] | [10] | [13] | [17] | [23] | [26] | [43] | [47] | [50] | [52] | [58]
> 100 µM: all other assays above

Reference: PubChem BioAssay (NCI)
